According to patent US20260015337A1 (Trawsfynydd Therapeutics, Inc., priority 2022, published 2026):

target: 3CL Protease (Severe acute respiratory syndrome coronavirus 2, UniProt P0DTD1); assay: 3CL Protease enzymatic activity assay (BPS Bioscience Assay Kit #78043-1, fluorescence); format: biochemical, SARS-CoV-2; settings: Table A; 30 min preincubation, 40 μM substrate, 4 hours at room temperature; read-out: IC50, nM (3CL Protease enzymatic activity)
Method: For determination of 3CL Protease enzymatic activity was used Assay Kit of BPS Bioscience, San Diego, CA (Catalog #78043-1).
All samples and controls should be tested in duplicate. • 1) Just before use, dilute 0.5 M DTT 500 times into the 3CL Protease Assay Buffer to obtain a DTT concentration of 1 mM. For example, add 10 μl of 0.5 M DTT to 5 ml of assay buffer. Prepare enough DTT-containing buffer as required for the assay. Store the remaining assay buffer at −20° C. • 2) Thaw the 3CL Protease on ice. Briefly spin the tube containing the enzyme to recover the full content of the tube. Note: 3CL Protease enzyme is sensitive to freeze/thaw cycles. […] Note: The exact concentration and volume of enzyme is lot-specific and will be indicated on the tube. Calculate required dilution from the information in the tube. It may be desirable to dilute the enzyme serially to avoid using large amounts of protease assay buffer for the dilution. • 4) Add 30 μl of diluted 3CL Protease to the wells designated as “Positive Control,” “Inhibitor Control,” and “Test Inhibitor.” Add 30 μl of Assay Buffer (containing 1 mM DTT) to the “Blank” wells. • 5) Dilute the 50 μg GC376 in 200 μl of Assay Buffer to obtain a 500 μM solution. Add 10 μl of GC376 (500 μM) to the wells labeled “Inhibitor Control”. Aliquot and store the remaining solution at −80° C. • 6) Prepare the Test Inhibitor. The final concentration of DMSO in the assay should not exceed 1%. If the Test Inhibitor is dissolved in DMSO, make a 100-fold higher concentration of the compound than the highest desired concentration. Then make a 20-fold dilution in 1× Assay Buffer (containing DTT). At this step the compound concentration is 5-fold higher than the final concentration. If the test inhibitor is dissolved in water, make a 5-fold higher concentration of the test compound than the final desired concentration in the Assay buffer (containing DTT). Add 10 μl of Test Inhibitor to each well designated “Test Inhibitor”. • 7) Diluent Solution (no inhibitor): add 10 μl of assay buffer (if the test compound is water soluble and was diluted in assay buffer) or 10 μl of 5% DMSO diluted in assay buffer (if DMSO was used to dissolve the test inhibitor) to “Blank” and “Positive Control” wells.
• 8) Preincubate for 30 min at room temperature with slow shaking. • 9) Dilute the 25 μl of 3CL Protease substrate (10 mM) in 1.25 ml of the Assay Buffer containing DTT, to make a […] solution. The final concentration of the 3CL Protease substrate in a 50 μl reaction is 40 μM. • 10) Start the reaction by adding 10 μl of the substrate solution to all the wells. Seal the plate with the plate sealer and incubate for 4 hours at room temperature with slow shaking. • 11) Measure the fluorescence intensity in a microtiter plate-reader fluorometer (Tecan Spark Cyto) capable of excitation at a wavelength 360 nm and detection of emission at a wavelength 460 nm. The fluorescence intensity can also be measured kinetically. The “Blank” value is subtracted from all other values. • The % inhibition was then used to calculate the IC50 values.

First: Cc1ccc2[nH]c(=O)c(C[C@H](C#N)NC(=O)C3C4C(CN3C(=O)[C@H](NS(=O)(=O)C3CC3)C(C)(C)C)C4(C)C)cc2c1 (stereo in doubt) [Compound 203, (1S)—N-[(1R)-1-Cyano-2-(6-methyl-2-oxo-1H-quinolin-3-yl)ethyl]-3-[(2R)-2-(cyclopropylsulfonylamino)-3,3-dimethyl-butanoyl]-6,6-dimethyl-3-azabicyclo[3.1.0]hexane-2-carboxamide]
Second: Cc1ccc2[nH]c(=O)c(C[C@H](C#N)NC(=O)[C@@H]3C4[C@H](CN3C(=O)[C@@H](NS(C)(=O)=O)C(C)(C)C)C4(C)C)cc2c1 (stereo in doubt) [Compound 148, (1R,2S,5S)—N-[(1R)-1-cyano-2-(6-methyl-2-oxo-1H-quinolin-3-yl)ethyl]-3-[(2S)-2-(methanesulfonamido)-3,3-dimethyl-butanoyl]-6,6-dimethyl-3-azabicyclo[3.1.0]hexane-2-carboxamide]
The IC50 of the first is lower: 50 to 100 nM for the first, at least 1000 nM for the second. The first is the more potent here.

`COc1cc2[nH]c(=O)c(C[C@@H](C#N)NC(=O)[C@@H]3[C@@H]4[C@H](CN3C(=O)[C@@H](NC(=O)C(F)(F)F)C(C)(C)C)C4(C)C)cc2cc1C` [Compound 175, (1R,2S,5S)—N-[(1S)-1-Cyano-2-(7-methoxy-6-methyl-2-oxo-1H-quinolin-3-yl)ethyl]-3-[(2S)-3,3-dimethyl-2-[(2,2,2-trifluoroacetyl)amino]butanoyl]-6,6-dimethyl-3-azabicyclo[3.1.0]hexane-2-carboxamide] and `COc1cc2cc(C[C@@H](C#N)NC(=O)[C@@H]3[C@@H]4[C@H](CN3C(=O)[C@@H](NC(=O)C(F)(F)F)C(C)(C)C)C4(C)C)c(=O)[nH]c2cc1C` [Compound 179] fall in the same range of IC50: 50 to 100 nM for the first, 50 to 100 nM for the second.

`CC(C)(C)[C@H](NC(=O)C(F)(F)F)C(=O)N1C[C@H]2[C@@H]([C@H]1C(=O)N[C@H](C#N)Cc1cc3cnccc3[nH]c1=O)C2(C)C` [Compound 174, (1R,2S,5S)—N—((S)-1-Cyano-2-(2-oxo-1,2-dihydro-1,6-naphthyridin-3-yl)ethyl)-3-((S)-3,3-dimethyl-2-(2,2,2-trifluoroacetamido)butanoyl)-6,6-dimethyl-3-azabicyclo[3.1.0]hexane-2-carboxamide] and `CC(C)(C)[C@H](NC(=O)C(F)(F)F)C(=O)N1C[C@H]2[C@@H]([C@H]1C(=O)NC(C#N)Cc1cc3ccccc3[nH]c1=O)C2(C)C` (stereo partly drawn) [Compound 182, (1R,2S,5S)-N-[1-cyano-2-(2-oxo-1H-quinolin-3-yl)ethyl]-3-[(2S)-3,3-dimethyl-2-[(2,2,2-trifluoroacetyl)amino]butanoyl]-6,6-dimethyl-3-azabicyclo[3.1.0]hexane-2-carboxamide] cannot be ordered by IC50: under 50 nM for the first, under 50 nM for the second.

Compared with `Cc1ccc2[nH]c(=O)c(C[C@@H](C#N)NC(=O)[C@@H]3C4[C@H](CN3C(=O)[C@@H](Nc3nc(C)cs3)C(C)(C)C)C4(C)C)cc2c1` (stereo in doubt) [Compound 157, (1R,2S,5S)—N—((S)-1-Cyano-2-(6-methyl-2-oxo-1,2-dihydroquinolin-3-yl)ethyl)-3-((S)-3,3-dimethyl-2-((4-methylthiazol-2-yl)amino)butanoyl)-6,6-dimethyl-3-azabicyclo[3.1.0]hexane-2-carboxamide], `Cc1ccc2[nH]c(=O)c(CC(C#N)NC(=O)[C@@H]3C4[C@H](CN3C(=O)[C@@H](Nc3ncc(C)s3)C(C)(C)C)C4(C)C)cc2c1` (stereo in doubt) [Compound 152, (1R,2S,5S)—N-(1-Cyano-2-(6-methyl-2-oxo-1,2-dihydroquinolin-3-yl)ethyl)-3-((S)-3,3-dimethyl-2-((5-methylthiazol-2-yl)amino)butanoyl)-6,6-dimethyl-3-azabicyclo[3.1.0]hexane-2-carboxamide] is lower in IC50: 250 to 500 nM for the first, 100 to 250 nM for the second. The second is the more potent here.

`CC(C)(C)[C@H](NC(=O)C(F)(F)F)C(=O)N1C[C@H]2C([C@H]1C(=O)NC(C#N)Cc1cc3c([nH]c1=O)CCOC3)C2(C)C` (stereo in doubt) [Compound 123, (1R,2S,5S)—N-(1-Cyano-2-(2-oxo-1,5,7,8-tetrahydro-2H-pyrano[4,3-b]pyridine-3-yl)ethyl)-3-((S)-3,3-dimethyl-2-(2,2,2-trifluoroacetamido)butanoyl)-6,6-dimethyl-3-azabicyclo[3.1.0]hexane-2-carboxamide] and `CC(C)(C)[C@H](NC(=O)C(F)(F)F)C(=O)N1C[C@H]2C([C@H]1C(=O)NC(C#N)Cc1cc3ccc(F)cc3[nH]c1=O)C2(C)C` (stereo in doubt) [Compound 106, (1R,2S,5S)—N-(1-Cyano-2-(7-fluoro-2-oxo-1,2-dihydroquinolin-3-yl)ethyl)-3-((S)-3,3-dimethyl-2-(2,2,2-trifluoroacetamido)butanoyl)-6,6-dimethyl-3-azabicyclo[3.1.0]hexane-2-carboxamide] fall in the same range of IC50: 100 to 250 nM for the first, 100 to 250 nM for the second.

`Cc1ccc2[nH]c(=O)c(C[C@@H](C#N)NC(=O)C3C[C@H]4OCC[C@H]4N3C(=O)[C@@H](NC(=O)C(F)(F)F)C(C)(C)C)cc2c1` (stereo partly drawn) [Compound 198, (3aR,6aR)—N—((S)-1-Cyano-2-(6-methyl-2-oxo-1,2-dihydroquinolin-3-yl)ethyl)-4-((S)-3,3-dimethyl-2-(2,2,2-trifluoroacetamido)butanoyl)hexahydro-2H-furo[3,2-b]pyrrole-5-carboxamide] and `Cc1ccc2[nH]c(=O)c(C[C@H](C#N)NC(=O)[C@@H]3[C@H]4[C@H](CN3C(=O)[C@@H](NC(=O)C(F)(F)F)C(C)(C)C)C4(C)C)cc2c1` [Compound 114, (1S,2S,5S)—N-[(1R)-1-cyano-2-(6-methyl-2-oxo-1H-quinolin-3-yl)ethyl]-3-[(2S)-3,3-dimethyl-2-[(2,2,2-trifluoroacetyl)amino]butanoyl]-6,6-dimethyl-3-azabicyclo[3.1.0]hexane-2-carboxamide] cannot be ordered by IC50: at least 1000 nM for the first, at least 1000 nM for the second.

First: CC(C)(C)[C@H](NS(C)(=O)=O)C(=O)N1C[C@H]2[C@@H]([C@H]1C(=O)N[C@@H](C#N)Cc1cc3cnccc3[nH]c1=O)C2(C)C [Compound 189, (1R,2S,5S)—N—((R)-1-Cyano-2-(2-oxo-1,2-dihydro-1,6-naphthyridin-3-yl)ethyl)-3-((S)-3,3-dimethyl-2-(methylsulfonamido)butanoyl)-6,6-dimethyl-3-azabicyclo[3.1.0]hexane-2-carboxamide]
Second: Cc1ccc2[nH]c(=O)c(C[C@H](C#N)NC(=O)C3C4C(CN3C(=O)[C@H](NC(=O)OC(C)C)C(C)(C)C)C4(C)C)cc2c1 (stereo in doubt) [Compound 202, Isopropyl N-[(1R)-1-[(1S)-2-[[(1R)-1-cyano-2-(6-methyl-2-oxo-1H-quinolin-3-yl)ethyl]carbamoyl]-6,6-dimethyl-3-azabicyclo[3.1.0]hexane-3-carbonyl]-2,2-dimethyl-propyl]carbamate]
The IC50 of the first is higher: at least 1000 nM for the first, 100 to 250 nM for the second.

Going from `Cc1ccc2[nH]c(=O)c(C[C@@H](C#N)NC(=O)[C@@H]3[C@@H]4[C@H](CN3C(=O)Cc3cc(C(F)(F)F)n[nH]3)C4(C)C)cc2c1` [Compound 191, (1R,2S,5S)—N—((S)-1-Cyano-2-(6-methyl-2-oxo-1,2-dihydroquinolin-3-yl)ethyl)-6,6-dimethyl-3-(2-(3-(trifluoromethyl)-1H-pyrazol-5-yl)acetyl)-3-azabicyclo[3.1.0]hexane-2-carboxamide] to `CC(C)(C)[C@H](NC(=O)C(F)(F)F)C(=O)N1C[C@H]2[C@@H]([C@H]1C(=O)N[C@@H](C#N)Cc1nc3ccccc3[nH]c1=O)C2(C)C` [Compound 186, (1R,2S,5S)—N-[(1R)-1-cyano-2-(3-oxo-4H-quinoxalin-2-yl)ethyl]-3-[(2S)-3,3-dimethyl-2-[(2,2,2-trifluoroacetyl)amino]butanoyl]-6,6-dimethyl-3-azabicyclo[3.1.0]hexane-2-carboxamide], the IC50 falls from at least 1000 nM to under 50 nM. The second is the more potent here.

`Cc1ccc2[nH]c(=O)c(C[C@@H](C#N)NC(=O)[C@H](Cc3ccccc3)N(C)C(=O)[C@@H](NC(=O)C(F)(F)F)C(C)(C)C)cc2c1` [Compound 206, (2S)—N-[(1S)-1-benzyl-2-[[(1S)-1-cyano-2-(6-methyl-2-oxo-1H-quinolin-3-yl)ethyl]amino]-2-oxo-ethyl]-N,3,3-trimethyl-2-[(2,2,2-trifluoroacetyl)amino]butanamide] gave an IC50 of at least 1000 nM.

same assay, conditions: Table B; comparison with known compound K; read-out: IC50, nM (3CL Protease enzymatic activity, comparative data)

In the case of `CC(C)(C)[C@H](NC(=O)C(F)(F)F)C(=O)N1C[C@H]2C([C@H]1C(=O)NC(C#N)Cc1cc3c([nH]c1=O)CCOC3)C2(C)C` (stereo in doubt) [Compound 123, (1R,2S,5S)—N-(1-Cyano-2-(2-oxo-1,5,7,8-tetrahydro-2H-pyrano[4,3-b]pyridine-3-yl)ethyl)-3-((S)-3,3-dimethyl-2-(2,2,2-trifluoroacetamido)butanoyl)-6,6-dimethyl-3-azabicyclo[3.1.0]hexane-2-carboxamide], the IC50 is reported as 180 nM.
